Experimental data from patent US6878699B1, “Taccalonolide microtubule stabilizing agents” (University of Hawaii, priority 1999, dated 2005).

What was measured:
[1] = test system: SKVLB-1 cell line (sub-line of SK-OV-3 selected for resistance to vinblastine, P-glycoprotein-overexpressing)
Protocol: (§1) A-10 rat aortic smooth muscle cells, SK-OV-3 human ovarian carcinoma cell line and HeLa cells were obtained from the American Type Culture Collection (Manassas, Va.) and were cultured in BME containing 10% FBS and 50 μg/1 mL gentamycin sulfate. […] The A-10, HeLa, SK-OV-3, and SKVBL-1 cells were grown in Basal Medium Eagle containing Earle's salts, 50 μg/ml gentamycin, and 10% fetal bovine sorum (Hyclone, Logan Utah). Vinblastine was added to a final concentration of 1 μg/mL to SKVLB-1 cells 24 hours after passage to maintain selection pressure for P-glycoprotein-overexpressing cells.
(§2) The IC50 for inhibition of cell proliferation was determined by measuring cell-associated protein after drug treatment using the sulforhodamine B assay (see, for example, J. Natl. Cancer Inst. 82:1107-1112 (1990) and Drug Development Res. 34:91-109 (1995)).
(§3) The IC50 for each cell line was calculated from the dose response curves. The resistance factor was calculated by dividing the IC50 of the drug sensitive cell line by the IC50 of the drug resistant cell line. The values represent the mean of 3 or 4 experiments ± the SD.

[2] = test system: SKVLB-1 cell line (sub-line of SK-OV-3 selected for resistance to vinblastine, P-glycoprotein-overexpressing); conditions: SK-OV-3 versus SKVLB-1; Mooberry et al. 1999, Smith et al. 1994; cited from earlier work
[3] = test system: SK-OV-3 human ovarian carcinoma cell line; experiment: Inhibition of cell proliferation, sulforhodamine B (SRB) assay; assay type: cell-based; conditions: 48 hr treatment, mean of 3 or 4 experiments ± SD
Protocol: as §1, §2, §3

[4] = test system: purified glycerol-free bovine brain tubulin; experiment: Assembly of purified tubulin (turbidity); assay type: biochemical; conditions: for Potency in tubulin polymerization relative to Taxol/paclitaxel: compared with 2 μM paclitaxel
Protocol: The assembly of purified tubulin was monitored spectrophotometrically by the change in absorbance at 340 nm. Purified glycerol-free bovine brain tubulin (TL-238, Cytoskeleton, Denver, Colo.) was solubilized in ice cold G-PEM buffer (80 mM PIPES, pH 6.9, 1 mM MgCl2, 1 mM EGTA and 1 mM GTP) and taccalonolide, Taxol or vehicle control was added and mixed well. The final concentration of tubulin was 1 mg/ml and ethanol concentration was 1% or less. An aliquot of the mixture was transferred to a room temperature 96 well plate and tubulin polymerization monitored for 60 min. at 35° C. in a temperature controlled microplate spectrophotometer.

Bc1-2 and caspase 3 = conditions: 18 and 24 hrs following treatment
Protocol: Following drug exposure the cells were harvested and cellular proteins extracted in radioimmunoprecipitation buffer in the presence of protease inhibitors as described previously (see Mooberry et al., Supra). The protein concentrations of the samples were determined (Pierce Reagent, Rockford, Ill.) and cell lysate aliquots containing equal concentrations of protein were separated, transferred, probed with specific antibodies, and detected as previously described (see Mooberry et al., in Cancer Res. 59:653-660 (1999)). The Bc1-2 and caspase 3 antibodies were purchased from PharMingin (San Diego, Calif.).

[5] = test system: MDA-MB-435 human mammary adenocarcinoma cell line; experiment: Inhibition of cell proliferation, sulforhodamine B (SRB) assay; conditions: read-out: IC50 inhibition of proliferation, MDA-MB-435, 48 hr treatment, mean of 3 or 4 experiments ± SD
Protocol: as §1, §2, §3

[6] = test system: SKVLB-1 cell line (sub-line of SK-OV-3 selected for resistance to vinblastine, P-glycoprotein-overexpressing); experiment: Inhibition of cell proliferation, SRB assay, multidrug-resistant line
Protocol: as §1, §2, §3

[7] = test system: A-10 rat aortic smooth muscle cells; experiment: Indirect immunofluorescence of microtubules, mitotic spindles and nuclei; conditions: low concentration 0.5 μM; cell line not specified (A-10 or HeLa)
Protocol: A-10 cells were grown to 70-85% confluency on glass coverslips in BME/10% FBS. Drug compounds in PBS were added to the indicated final concentrations and cells were incubated for an additional 24 hours. For the staining of microtubules and intermediate filaments, the cells were fixed with cold methanol for 5 minutes, blocked for 20 minutes with PBS containing 10% calf serum to block nonspecific binding sites, and incubated at 37° C. for 60-90 min with monoclonal anti-β-tubulin at the dilutions recommended by the manufacturer. Bound primary antibodies were subsequently visualized by a one hour incubation with fluorescein (FITC)-conjugated sheep antimouse IgG (F-3008; Sigma). The coverslips were washed, stained with 0.1 μg/mL DAPI for 10 minutes, mounted on microscope slides and the fluorescence patterns were examined and photographed using a Zeiss Axioplan microscope equipped with epifluorescence optics for fluorescein and DAPI.

CC(=O)O[C@H]1C(=O)[C@@]2(C)[C@H]([C@H](OC(=O)c3ccccc3)[C@]3(O)C[C@H](OC(=O)[C@H](O)[C@@H](NC(=O)c4ccccc4)c4ccccc4)C(C)=C1C3(C)C)[C@]1(OC(C)=O)CO[C@@H]1C[C@@H]2O [Paclitaxel]
inhibition [1]: ≤ 70%
Resistance factor (literature) [2]: greater than 58,000

COc1ccc(C[C@H]2NC(=O)/C=C/C[C@@H]([C@H](C)[C@H]3O[C@@H]3c3ccccc3)OC(=O)[C@H](CC(C)C)OC(=O)[C@H](C)CNC2=O)cc1Cl [cryptophycin 1]
Resistance factor (literature) [2]: 1.1

C=C1C[C@H](C)C[C@@H]2CC=C[C@@H](C/C=C\C(=O)O[C@H]([C@@H](O)/C=C/[C@@H]3CC(C)=CCO3)C[C@@H]3O[C@H]3[C@@H](O)C1)O2 [laulimalide]
Resistance factor (literature) [2]: 105

taccalonolide A
IC50 [3]: 2.3 µM
Effect on polymerization of purified tubulin ([4]; 2 μM and 200 μM, 35° C., 60 min): stimulated the polymerization of tubulin
Potency in tubulin polymerization relative to Taxol/paclitaxel ([4]; listed as Taccalonolide): much less potent than Taxol
Potency in tubulin polymerization relative to Taxol/paclitaxel ([4]; listed as taccalonolide): much less potent than paclitaxel
p17 subunit of activated caspase 3 by immunoblot (Bc1-2 and caspase 3): detected
IC50 [5]: 2.1 µM
Inhibition of proliferation of SKVLB-1 (in words) ([6]; P-glycoprotein overexpressing line): completely inhibit the proliferation
Resistance factor ([6]; SK-OV-3 (drug-sensitive) versus SKVLB-1 (drug resistant) IC50): 285
Substrate for P-glycoprotein mediated drug transport ([6]; inferred from resistance factor SK-OV-3/SKVLB-1): poor substrate
IC50 ([6]; read-out: IC50 inhibition of proliferation, SKVLB-1, 48 hr treatment, SRB assay, multidrug-resistant line, mean of 3 or 4 experiments ± SD): 656 ± 42 µM
First observable cellular change in dose-response study [7]: abnormal coordination of the DNA in the metaphase plate during mitosis
